Measured values published in US20070049564A1 (Wyeth, priority 2005, published 2007).
≈ marks a conversion by molar mass, not a printed value. Read-outs that look alike come from different tables or passages of the source.

How the values were obtained:
[1] = tested on: S. aureus GC 1079; assay: MIC, broth microdilution; details: Staphylococcus aureus
[2] = tested on: E. faecium GC 4556; assay: MIC, broth microdilution; details: Enterococcus faecium
[3] = tested on: S. epidermidis GC 4935; assay: MIC, broth microdilution; details: Staphylococcus epidermidis
[4] = tested on: E. coli GC 2234; assay: MIC, broth microdilution; details: Escherichia coli
[5] = tested on: S. pneumoniae+ GC 4465; assay: MIC, broth microdilution; details: Streptococcus pneumoniae
[6] = tested on: c. albicans GC 3066; assay: MIC, broth microdilution; details: for MIC: Candida albicans, GC3066, read-out: MINIMAL INHIBITORY CONCENTRATION MIC; for MINIMAL INHIBITORY CONCENTRATION MIC: pre-incubated in Water
[7] = tested on: E. coli GC 2235; assay: MIC, broth microdilution; details: Escherichia coli
[8] = tested on: S. aureus GC 6335; assay: MIC, broth microdilution; details: Staphylococcus aureus
[9] = tested on: P. aeruginosa GC 2214; assay: MIC, broth microdilution; details: Pseudomonas aeruginosa
[10] = tested on: E. coli GC 1073; assay: MIC, broth microdilution; details: Escherichia coli
[11] = tested on: S. pyogenes GC 4563; assay: MIC, broth microdilution; details: Streptococcus pyogenes
[12] = tested on: E. coli GC 4559; assay: MIC, broth microdilution; details: Escherichia coli
[13] = tested on: E. coli GC 2270; assay: MIC, broth microdilution; details: Escherichia coli
[14] = tested on: E. coli GC 2236; assay: MIC, broth microdilution; details: Escherichia coli
[15] = tested on: E. coli GC 2233; assay: MIC, broth microdilution; details: Escherichia coli
[16] = tested on: E. coli GC 2271; assay: MIC, broth microdilution; details: Escherichia coli
[17] = tested on: S. aureus GC 1131; assay: MIC, broth microdilution; details: Staphylococcus aureus
[18] = tested on: E. faecalis GC 2242; assay: MIC, broth microdilution; details: Enterococcus faecalis
[19] = tested on: S. aureus GC 2216; assay: MIC, broth microdilution; details: Staphylococcus aureus
[20] = tested on: Staph. aureus Smith; assay: In vivo activity (oral, iv; ED50) against Staph. aureus Smith in mice
Experimental: Representative examples of compounds of Formula I were tested for the oral efficacy using S. aureus Smith in mice.

[21] = GC1079, read-out: MINIMAL INHIBITORY CONCENTRATION MIC, pre-incubated in Mouse Serum
[22] = GC1079, read-out: MINIMAL INHIBITORY CONCENTRATION MIC, pre-incubated in Water
[23] = GC4556, read-out: MINIMAL INHIBITORY CONCENTRATION MIC, pre-incubated in Mouse Serum
[24] = GC4556, read-out: MINIMAL INHIBITORY CONCENTRATION MIC, pre-incubated in Water
[25] = GC4935, read-out: MINIMAL INHIBITORY CONCENTRATION MIC, pre-incubated in Mouse Serum
[26] = GC4935, read-out: MINIMAL INHIBITORY CONCENTRATION MIC, pre-incubated in Water
[27] = GC2234, read-out: MINIMAL INHIBITORY CONCENTRATION MIC, pre-incubated in Mouse Serum
[28] = GC2234, read-out: MINIMAL INHIBITORY CONCENTRATION MIC, pre-incubated in Water
[29] = read-out: MINIMAL INHIBITORY CONCENTRATION MIC, pre-incubated in Mouse Serum
[30] = read-out: MINIMAL INHIBITORY CONCENTRATION MIC, pre-incubated in Water
[31] = GC2235, read-out: MINIMAL INHIBITORY CONCENTRATION MIC, pre-incubated in Mouse Serum
[32] = GC2235, read-out: MINIMAL INHIBITORY CONCENTRATION MIC, pre-incubated in Water
[33] = GC6335, read-out: MINIMAL INHIBITORY CONCENTRATION MIC, pre-incubated in Mouse Serum
[34] = GC6335, read-out: MINIMAL INHIBITORY CONCENTRATION MIC, pre-incubated in Water
[35] = GC2214, read-out: MINIMAL INHIBITORY CONCENTRATION MIC, pre-incubated in Mouse Serum
[36] = GC2214, read-out: MINIMAL INHIBITORY CONCENTRATION MIC, pre-incubated in Water
[37] = GC1073, read-out: MINIMAL INHIBITORY CONCENTRATION MIC, pre-incubated in Mouse Serum
[38] = GC1073, read-out: MINIMAL INHIBITORY CONCENTRATION MIC, pre-incubated in Water
[39] = GC4563, read-out: MINIMAL INHIBITORY CONCENTRATION MIC, pre-incubated in Mouse Serum
[40] = GC4563, read-out: MINIMAL INHIBITORY CONCENTRATION MIC, pre-incubated in Water
[41] = GC4559, read-out: MINIMAL INHIBITORY CONCENTRATION MIC, pre-incubated in Mouse Serum
[42] = GC4559, read-out: MINIMAL INHIBITORY CONCENTRATION MIC, pre-incubated in Water
[43] = GC2270, read-out: MINIMAL INHIBITORY CONCENTRATION MIC, pre-incubated in Mouse Serum
[44] = GC2270, read-out: MINIMAL INHIBITORY CONCENTRATION MIC, pre-incubated in Water
[45] = GC2236, read-out: MINIMAL INHIBITORY CONCENTRATION MIC, pre-incubated in Mouse Serum
[46] = GC2236, read-out: MINIMAL INHIBITORY CONCENTRATION MIC, pre-incubated in Water
[47] = GC2233, read-out: MINIMAL INHIBITORY CONCENTRATION MIC, pre-incubated in Mouse Serum
[48] = GC2233, read-out: MINIMAL INHIBITORY CONCENTRATION MIC, pre-incubated in Water
[49] = GC2271, read-out: MINIMAL INHIBITORY CONCENTRATION MIC, pre-incubated in Mouse Serum
[50] = GC2271, read-out: MINIMAL INHIBITORY CONCENTRATION MIC, pre-incubated in Water
[51] = GC1131, read-out: MINIMAL INHIBITORY CONCENTRATION MIC, pre-incubated in Mouse Serum
[52] = GC1131, read-out: MINIMAL INHIBITORY CONCENTRATION MIC, pre-incubated in Water
[53] = GC2242, read-out: MINIMAL INHIBITORY CONCENTRATION MIC, pre-incubated in Mouse Serum
[54] = GC2242, read-out: MINIMAL INHIBITORY CONCENTRATION MIC, pre-incubated in Water
[55] = GC2216, read-out: MINIMAL INHIBITORY CONCENTRATION MIC, pre-incubated in Mouse Serum
[56] = GC2216, read-out: MINIMAL INHIBITORY CONCENTRATION MIC, pre-incubated in Water
[57] = Staphylococcus aureus, in Mus musculus, po, read-out: ED50 Staph Smith SOD
[58] = iv, read-out: ED50 Staph Smith SIV

Row | SMILES | MIC [1, 21] | MIC [1, 22] | MIC [2, 23] | MIC [2, 24] | MIC [3, 25] | MIC [3, 26] | MIC [4, 27] | MIC [4, 28] | MIC [5, 29] | MIC [5, 30] | MIC [6] | MINIMAL INHIBITORY CONCENTRATION MIC [6] | MIC [7, 31] | MIC [7, 32] | MIC [8, 33] | MIC [8, 34] | MIC [9, 35] | MIC [9, 36] | MIC [10, 37] | MIC [10, 38] | other results
1 | CCCCN(CC(=O)Nc1cc(N(C)C)c2c(c1O)C(=O)C1=C(O)[C@]3(O)C(=O)C(C(N)=O)=C(O)[C@@H](N(C)C)[C@@H]3C[C@@H]1C2)C(=O)OCOC(=O)c1cc(C)cc(C)c1 [Example 22, ({[(2-{[(5aR,6aS,7S,10aS)-9-(aminocarbonyl)-4,7-bis(dimethylamino)-1,8,10a,11-tetrahydroxy-10,12-dioxo-5,5a,6,6a,7,10,10a,12-octahydrotetracen-2-yl]amino}-2-oxoethyl)(butyl)amino]carbonyl}oxy)methyl 3,5-dimethylbenzoate] | 2 µg/mL (≈ 2.53 µM) | 32 µg/mL (≈ 40.4 µM) | 2 µg/mL (≈ 2.53 µM) | 64 µg/mL (≈ 80.8 µM) | 2 µg/mL (≈ 2.53 µM) | 16 µg/mL (≈ 20.2 µM) | 1 µg/mL (≈ 1.26 µM) | > 64 µg/mL | 4 µg/mL (≈ 5.05 µM) | 16 µg/mL (≈ 20.2 µM) | > 64 µg/mL | >64 UG/ML | 1 µg/mL (≈ 1.26 µM) | > 64 µg/mL | 2 µg/mL (≈ 2.53 µM) | 8 µg/mL (≈ 10.1 µM) | > 64 µg/mL | > 64 µg/mL | 2 µg/mL (≈ 2.53 µM) | > 64 µg/mL | MIC [11, 39]: 0.5 µg/mL (≈ 0.631 µM); MIC [11, 40]: 1 µg/mL (≈ 1.26 µM); MIC [12, 41]: 2 µg/mL (≈ 2.53 µM); MIC [12, 42]: > 64 µg/mL; MIC [13, 43]: 1 µg/mL (≈ 1.26 µM); MIC [13, 44]: > 64 µg/mL; MIC [14, 45]: 2 µg/mL (≈ 2.53 µM); MIC [14, 46]: > 64 µg/mL; MIC [15, 47]: 2 µg/mL (≈ 2.53 µM); MIC [15, 48]: > 64 µg/mL; MIC [16, 49]: 1 µg/mL (≈ 1.26 µM); MIC [16, 50]: > 64 µg/mL; MIC [17, 51]: 1 µg/mL (≈ 1.26 µM); MIC [17, 52]: 4 µg/mL (≈ 5.05 µM); MIC [18, 53]: 2 µg/mL (≈ 2.53 µM); MIC [18, 54]: 32 µg/mL (≈ 40.4 µM); MIC [19, 55]: 1 µg/mL (≈ 1.26 µM); MIC [19, 56]: 4 µg/mL (≈ 5.05 µM); ED50 [20, 57]: 18.8 mg/kg; ED50 [20, 58]: 0.43 mg/kg
2 | CCCCN(CC(=O)Nc1cc(N(C)C)c2c(c1O)C(=O)C1=C(O)[C@]3(O)C(=O)C(C(N)=O)=C(O)[C@@H](N(C)C)[C@@H]3C[C@@H]1C2)C(=O)OCOC(=O)c1cccs1 [Example 23, ({[(2-{[(5aR,6aS,7S,10aS)-9-(aminocarbonyl)-4,7-bis(dimethylamino)-1,8,10a,11-tetrahydroxy-10,12-dioxo-5,5a,6,6a,7,10,10a,12-octahydrotetracen-2-yl]amino}-2-oxoethyl)(butyl)amino]carbonyl}oxy)methyl thiophene-2-carboxylate] | 2 µg/mL (≈ 2.6 µM) | 4 µg/mL (≈ 5.2 µM) | 2 µg/mL (≈ 2.6 µM) | 4 µg/mL (≈ 5.2 µM) | 2 µg/mL (≈ 2.6 µM) | 4 µg/mL (≈ 5.2 µM) | 1 µg/mL (≈ 1.3 µM) | > 64 µg/mL | 4 µg/mL (≈ 5.2 µM) | 8 µg/mL (≈ 10.4 µM) | > 64 µg/mL | >64 UG/ML | 1 µg/mL (≈ 1.3 µM) | > 64 µg/mL | 2 µg/mL (≈ 2.6 µM) | 4 µg/mL (≈ 5.2 µM) | > 64 µg/mL | > 64 µg/mL | 1 µg/mL (≈ 1.3 µM) | > 64 µg/mL | MIC [11, 39]: 0.12 µg/mL (≈ 0.156 µM); MIC [11, 40]: 0.25 µg/mL (≈ 0.325 µM); MIC [12, 41]: 2 µg/mL (≈ 2.6 µM); MIC [12, 42]: > 64 µg/mL; MIC [13, 43]: 1 µg/mL (≈ 1.3 µM); MIC [13, 44]: > 64 µg/mL; MIC [14, 45]: 2 µg/mL (≈ 2.6 µM); MIC [14, 46]: > 64 µg/mL; MIC [15, 47]: 2 µg/mL (≈ 2.6 µM); MIC [15, 48]: > 64 µg/mL; MIC [16, 49]: 1 µg/mL (≈ 1.3 µM); MIC [16, 50]: > 64 µg/mL; MIC [17, 51]: 1 µg/mL (≈ 1.3 µM); MIC [17, 52]: 2 µg/mL (≈ 2.6 µM); MIC [18, 53]: 2 µg/mL (≈ 2.6 µM); MIC [18, 54]: 4 µg/mL (≈ 5.2 µM); MIC [19, 55]: 1 µg/mL (≈ 1.3 µM); MIC [19, 56]: 4 µg/mL (≈ 5.2 µM); ED50 [20, 57]: 19 mg/kg; ED50 [20, 58]: 0.47 mg/kg
